Assay results reported in ChEMBL document CHEMBL3832067, “DailyMed|setid=d28bec8f-762e-4f05-a20d-96a42970d6a7 | Estradiol - estradiol patch|Mylan Pharmaceuticals Inc”.

What was measured:
Homo sapiens = experiment: (§1) Evaluation of pharmacokinetic parameters for Estradiol after multiple topical applying Estradiol transdermal systems to the abdomen or the buttocks of 17 healthy, postmenopausal female subjects.; format: ADME, organism-based; design: dose 0.075 mg/day, dose 0.1 mg/day, dose 0.0375 mg/day, dose 0.05 mg/day, route topical to abdomen, route topical to buttocks; details: in vivo, topical_or_ocular, dosed compound id 17, dosed compound name ESTRADIOL, gender female, regimen Multiple dose, tissue Plasma
[1] = as §1; format: ADME, organism-based; design: dose 0.075 mg/day, dose 0.1 mg/day, dose 0.0375 mg/day, dose 0.05 mg/day, route topical to abdomen, route topical to buttocks; details: human, in vivo, topical or ocular; dose 0.05 mg/day, dosed compound id 17, dosed compound name ESTRADIOL, gender female, regimen Multiple dose, route topical to abdomen, tissue Plasma; read-out: Cmin(80hr)
[2] = dose 0.0375 mg/day, route topical to abdomen
[3] = dose 0.075 mg/day, route topical to abdomen
[4] = dose 0.1 mg/day, route topical to abdomen
[5] = dose 0.1 mg/day, route topical to buttocks

Cavg (Homo sapiens; [2]): 0.034 ng/mL
Cmin(84hr) (Homo sapiens; [2]): 0.03 ng/mL
Cavg (Homo sapiens; dose 0.05 mg/day, route topical to abdomen): 0.057 ng/mL
Cavg (Homo sapiens; [3]): 0.072 ng/mL
Cmin(84hr) (Homo sapiens; [3]): 0.06 ng/mL
Cavg (Homo sapiens; [4]): 0.089 ng/mL
Cmin(84hr) (Homo sapiens; [4]): 0.09 ng/mL
Cavg (Homo sapiens; [5]): 0.104 ng/mL
Cmin(84hr) (Homo sapiens; [5]): 0.085 ng/mL
concentration at 80 h [1]: 0.041 ng/mL
Structure (SMILES): C[C@]12CC[C@@H]3c4ccc(O)cc4CC[C@H]3[C@@H]1CC[C@@H]2O [ESTRADIOL]
